This is an account of results in ChEMBL document CHEMBL5357077, “Synthesis and Biological Evaluation of β-Lactam Derivatives Targeting Speckle-Type POZ Protein (SPOP)” (ACS Med Chem Lett, 2024).

Calls of active or inactive are those of the source. The rule behind the calls is not given here.

Data set [1] concerns the target T1, Speckle-type POZ protein (Homo sapiens, UniProt O43791). Briefly: Inhibition of GST-tagged human SPOP MATH domain (28 to 166 residues) expressed in Escherichia coli BL21 CodonPlus (DE3)-RIPL cells using FITC-LACDEVTSTTSSSTA peptide as substrate assessed as inhibition of substrate binding to SPOP preincubated with compound for 30 mins followed by substrate addition and measured immediately by fluorescence polarization assay.

The target in data set [2] is T1, Speckle-type POZ protein. In words: Potency index, ratio of 230D7 IC50 to test compound IC50 for inhibition of GST-tagged human SPOP MATH domain (28 to 166 residues) expressed in Escherichia coli BL21 CodonPlus (DE3)-RIPL cells using FITC-LACDEVTSTTSSSTA peptide as substrate assessed as inhibition of substrate binding to SPOP preincubated with compound for 30 mins followed by substrate addition and measured immediately by fluorescence polarization assay. (In fluorescence polarisation assays a small probe gives low polarisation when free and higher when bound to something large.)

Data set [3] deals with T1, Speckle-type POZ protein. In words: Binding affinity to GST-tagged human SPOP MATH domain (28 to 166 residues) expressed in Escherichia coli BL21 CodonPlus (DE3)-RIPL cells assessed as equilibrium dissociation constant by SPR analysis. (In general: SPR reads the build-up and loss of mass on a sensor chip optically.)
Data set [4] concerns the target T1, Speckle-type POZ protein. Briefly: Inhibition of GST-tagged human SPOP MATH domain (28 to 166 residues) expressed in Escherichia coli BL21 CodonPlus (DE3)-RIPL cells using Myc-DUSP7 as substrate assessed as disruption of SPOP binding to substrate at 1 to 40 uM incubated for 2 hrs by GST pull-down assay. To be noted: dose 1-40 µM.
Data set [5] deals with T1, Speckle-type POZ protein. Briefly: Inhibition of GST-tagged human SPOP MATH domain (28 to 166 residues) expressed in Escherichia coli BL21 CodonPlus (DE3)-RIPL cells using Myc-PTEN as substrate assessed as disruption of SPOP binding to substrate at 1 to 40 uM incubated for 2 hrs by GST pull-down assay. To be noted: dose 1-40 µM.
Data set [6] concerns 786-0. In words: Antiproliferative activity against human 786-0 cells assessed as inhibition of cell proliferation measured after 72 hrs by Celltiter Glo luminescent cell viability assay. Type of data set: functional, cell-based. In general terms: ATP-based viability assays read luminescence as a measure of living cells.
A further data set relates to HK-2. Briefly: Cytotoxicity against HK-2 cells assessed as inhibition of cell proliferation measured after 72 hrs by Celltiter Glo luminescent cell viability assay. To be noted: human, hk-2, 72 h. Type of data set: toxicity, cell-based.
The test system of another data set is OS-RC-2. In words: Inhibition of colony formation in human OS-RC-2 cells at 0.4 to 50 uM incubated for 10 to 14 days by crystal violet staining based imaging analysis. Type of data set: functional, cell-based. Conditions: dose 0.4-50 µM, time 10-14 day.
The test system of data set [7] is 786-0. In words: Inhibition of colony formation in human 786-0 cells at 0.4 to 50 uM incubated for 10 to 14 days by crystal violet staining based imaging analysis. Type of data set: functional, cell-based. To be noted: dose 0.4-50 µM, time 10-14 day.
Another data set relates to A498. In words: Inhibition of colony formation in human A498 cells at 0.4 to 50 uM incubated for 10 to 14 days by crystal violet staining based imaging analysis. Type of data set: functional, cell-based. Conditions: dose 0.4-50 µM, time 10-14 day.
Another data set concerns 769-P. Briefly: Inhibition of colony formation in human 769-P cells at 0.4 to 50 uM incubated for 10 to 14 days by crystal violet staining based imaging analysis. Type of data set: functional, cell-based. To be noted: dose 0.4-50 µM, time 10-14 day.

T1 sequence (O43791 whole entry, the tested form may be a part): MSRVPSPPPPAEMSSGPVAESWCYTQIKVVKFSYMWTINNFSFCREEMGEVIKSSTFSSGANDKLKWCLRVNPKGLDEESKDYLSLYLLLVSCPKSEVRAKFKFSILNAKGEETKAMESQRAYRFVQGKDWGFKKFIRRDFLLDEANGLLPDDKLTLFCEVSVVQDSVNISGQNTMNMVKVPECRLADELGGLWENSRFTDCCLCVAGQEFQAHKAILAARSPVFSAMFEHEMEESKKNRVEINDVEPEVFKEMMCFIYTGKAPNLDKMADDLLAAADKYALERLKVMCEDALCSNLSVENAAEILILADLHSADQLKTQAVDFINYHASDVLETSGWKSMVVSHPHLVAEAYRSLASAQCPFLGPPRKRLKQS

Turning to `CC(=O)OCC1=C(C(=O)O)N2C(=O)[C@@H](NC(=O)c3ccc(COc4ccc(Br)cc4Cl)o3)[C@H]2SC1`, the IC50 on Speckle-type POZ protein [1] came to 12.5 µM.
Same read-out and setting: the same measure for `Cn1nnnc1SCC1=C(C(=O)O)N2C(=O)[C@@H](NC(=O)c3ccc(COc4ccc(Br)cc4Cl)o3)[C@H]2SC1`: 34.6 µM.
On the same count and under the same terms, the same measure for `C[C@H]1[C@H](NC(=O)c2ccc(COc3ccc(Br)cc3Cl)o2)C(=O)N1S(=O)(=O)O`: above 100 µM; for `C=CC1=C(C(=O)O)N2C(=O)[C@@H](NC(=O)c3cccc(COc4ccc(Br)cc4Cl)c3)[C@H]2SC1`: 30.1 µM; for `O=C(O)C1=CCS[C@@H]2[C@H](NC(=O)c3ccc(COc4ccc(Br)cc4Cl)o3)C(=O)N12`: 42.1 µM.
Same read-out and setting: the same measure for `C=CC1=C(C(=O)O)N2C(=O)[C@@H](NC(=O)c3ccc(COc4ccc(Br)cc4)o3)[C@H]2SC1`: above 100 µM; for `C=CC1=C(C(=O)O)N2C(=O)[C@@H](NC(=O)c3ccc(Br)o3)[C@H]2SC1`: above 100 µM; for `C=CC1=C(C(=O)O)N2C(=O)[C@@H](NC(=O)c3ccc(CO)o3)[C@H]2SC1`: above 100 µM.
For the compound `C=CC1=C(C(=O)O)N2C(=O)[C@@H](NC(=O)c3ccc(COc4cccc(Cl)c4)o3)[C@H]2SC1`, on Speckle-type POZ protein [1], the IC50 was above 100 µM.
On the same count and under the same terms, the same measure for `C=CC1=C(C(=O)O)N2C(=O)[C@@H](NC(=O)c3ccc(CBr)o3)[C@H]2SC1`: above 100 µM.
Consider `C=CC1=C(C(=O)O)N2C(=O)[C@@H](NC(=O)c3ccc(COCC)o3)[C@H]2SC1`, for which, at Speckle-type POZ protein [1], the IC50 is above 100 µM.
Take `CC1=C(C(=O)O)N2C(=O)[C@@H](NC(=O)c3ccc(COc4ccc(Br)cc4Cl)o3)[C@H]2SC1`: the IC50 at Speckle-type POZ protein [1] was above 100 µM.
Regarding `C=CC1=C(C(=O)O)N2C(=O)[C@@H](NC(=O)c3ccc(COc4ccccc4)o3)[C@H]2SC1`, the IC50 on Speckle-type POZ protein [1] stood at 6.33 µM. Moreover, on Speckle-type POZ protein [2], the Ratio IC50 amounted to 2.
As for `C=CC1=C(C(=O)O)N2C(=O)[C@@H](NC(=O)c3ccc(COc4ccc(Br)cc4Cl)s3)[C@H]2SC1`, the IC50 on Speckle-type POZ protein [1] was found to be 15.1 µM.
Consider `C=CC1=C(C(=O)O)N2C(=O)[C@@H](NC(=O)c3ccc(COc4ccc(C#N)cc4Cl)o3)[C@H]2SC1`, for which the IC50 at Speckle-type POZ protein [1] was 11.7 µM.
Still for that read-out and setting: the same measure for `C=CC1=C(C(=O)O)N2C(=O)[C@@H](NC(=O)c3ccc(C(=O)OC)o3)[C@H]2SC1`: above 100 µM; for `C=CC1=C(C(=O)O)N2C(=O)[C@@H](NC(=O)c3ccc(COc4ccc(F)cc4)o3)[C@H]2SC1`: 7.03 µM; for `C=CC1=C(C(=O)O)N2C(=O)[C@@H](NC(=O)c3ccc(COCc4ccc(Br)cc4Cl)o3)[C@H]2SC1`: 66 µM.
As for `C=CC1=C(C(=O)O)N2C(=O)[C@@H](NC(=O)c3ccc(C(=O)Nc4ccc(Br)cc4Cl)o3)[C@H]2SC1`, on Speckle-type POZ protein [1], the IC50 amounted to 52.1 µM.
Same read-out and setting: the same measure for `O=C(O)C1=C(Cl)CS[C@@H]2[C@H](NC(=O)c3ccc(COc4ccc(Br)cc4Cl)o3)C(=O)N12`: 53.3 µM.
With `C/C=C/C1=C(C(=O)O)N2C(=O)[C@@H](NC(=O)c3ccc(COc4ccc(Br)cc4Cl)o3)[C@H]2SC1`, the half-maximal inhibitory concentration (IC50) on Speckle-type POZ protein [1] is 52.6 µM.
Still for that read-out and setting: the same measure for `O=C(O)C1=C(CO)CS[C@@H]2[C@H](NC(=O)c3ccc(COc4ccc(Br)cc4Cl)o3)C(=O)N12`: above 100 µM.
As for `C=CC1=C(C(=O)O)N2C(=O)[C@@H](NC(=O)c3ccc(CCl)o3)[C@H]2SC1`, the half-inhibitory concentration (IC50) on Speckle-type POZ protein [1] stood at 0.58 µM. In addition, at Speckle-type POZ protein [2], the Ratio IC50 stood at 22. Besides, the Kd at Speckle-type POZ protein [3] was 1.54 µM. Also, the inhibition result at Speckle-type POZ protein [4], on Speckle-type POZ protein [5], in the data set on OS-RC-2, in the data set with 786-0 [7], in the data set with A498 and in the data set with 769-P was “Active” in each case. The outcome in the data set with 786-0 [6] was Active. Moreover, in the data set with HK-2, the Activity result is “Non-Toxic”.
Take `C=CC1=C(C(=O)O)N2C(=O)[C@@H](NC(=O)c3ccc(COc4ccc(C#N)cc4)o3)[C@H]2SC1`: the IC50 on Speckle-type POZ protein [1] is above 100 µM.
The same measure, in the same setting: the same measure for `CC1(C)S[C@@H]2[C@H](NC(=O)c3ccc(COc4ccc(Br)cc4Cl)o3)C(=O)N2[C@H]1C(=O)O`: 20.5 µM; for `C=CC1=C(C(=O)O)N2C(=O)[C@@H](NC(=O)c3ccc(CNc4ccc(Br)cc4Cl)o3)[C@H]2SC1`: above 100 µM.
On to `C=CC1=C(C(=O)O)N2C(=O)[C@@H](NC(=O)c3ccc(COc4ccc(F)cc4Cl)o3)[C@H]2SC1`, for which, at Speckle-type POZ protein [1], the 50% inhibitory concentration (IC50) was 98 µM.
Still for that read-out and setting: the same measure for `C=CC1=C(C(=O)O)N2C(=O)[C@@H](NC(=O)c3ccco3)[C@H]2SC1`: 81.2 µM; for `C=CC1=C(C(=O)O)N2C(=O)[C@@H](NC(=O)c3ccc(C)o3)[C@H]2SC1`: 20.7 µM.
Turning to `C=CC1=C(C(=O)O)N2C(=O)[C@@H](NC(=O)c3ccc(Cl)o3)[C@H]2SC1`, the IC50 on Speckle-type POZ protein [1] is above 100 µM.
Same read-out and setting: the same measure for `Cc1nnc(SCC2=C(C(=O)O)N3C(=O)[C@@H](NC(=O)c4ccc(COc5ccc(Br)cc5Cl)o4)[C@H]3SC2)s1`: 32.3 µM; for `C=CC1=C(C(=O)O)N2C(=O)[C@@H](NC(=O)c3ccc(COc4ccccc4Cl)o3)[C@H]2SC1`: above 100 µM.
On the same count and under the same terms, the same measure for `COCC1=C(C(=O)O)N2C(=O)[C@@H](NC(=O)c3ccc(COc4ccc(Br)cc4Cl)o3)[C@H]2SC1`: above 100 µM; for `C=CC1=C(C(=O)O)N2C(=O)[C@@H](NC(=O)c3ccc(COC)o3)[C@H]2SC1`: 26 µM; for `C=CC1=C(C(=O)O)N2C(=O)[C@@H](NC(=O)c3ccc(COc4cccnc4)o3)[C@H]2SC1`: 74.4 µM.
In the case of `C=CC1=C(C(=O)O)N2C(=O)[C@@H](NC(=O)c3ccc(COc4ccc(Br)cc4Cl)o3)[C@H]2SC1`, the IC50 on Speckle-type POZ protein [1] stood at 5.35 µM. On Speckle-type POZ protein [2], the Ratio IC50 is 3.
In the case of `C=CC1=C(C(=O)O)N2C(=O)[C@@H](NC(=O)c3ccc(COc4ccc(Cl)cc4Br)o3)[C@H]2SC1`, the IC50 on Speckle-type POZ protein [1] is above 100 µM.
Still for that read-out and setting: the same measure for `C=CC1=C(C(=O)O)N2C(=O)[C@@H](NC(=O)c3ccc(CF)o3)[C@H]2SC1`: 20.9 µM; for `C=CC1=C(C(=O)O)N2C(=O)[C@@H](NC(=O)c3ccc(COc4c(C)cc(Br)cc4Cl)o3)[C@H]2SC1`: above 100 µM.

A word on the IC50: it is the point on the concentration scale where inhibition reaches its midpoint. As usually defined, the Kd is a measure of binding affinity in units of concentration.
